Values of other authors in patent publication US10064865B2, “Composition comprising phosphodiesterase type 5 inhibitor for inhibiting apoptosis of nerve cells” (ARIBIO INC., priority 2012, dated 2018).

Tested on: B-chronic lymphocytic leukemia cells
Details: Marika Sarfati et al., BLOOD 2003; cited from earlier work

## CCCc1nn(C)c2c(=O)[nH]c(-c3cc(S(=O)(=O)N4CCN(C)CC4)ccc3OCC)nc12 [sildenafil]
  apoptosis of B-chronic lymphocytic leukemia cells: induce caspase-dependent apoptosis
